Reference: patent US20220023269A1, “Methods Of Treating Diabetes In Severe Insulin-Resistant Diabetic Subjects” (Balticgruppen Bio AB, priority 2018, published 2022)

Tests used:
[1] = tested on: primary mouse islets; test: Unfolded protein response gene expression in islets at 22 mM glucose; type: cell-based
Description: For RNA purification calf muscle, iWAT, interscapular BAT, and left lateral liver lobe was crushed in a pestle using liquid nitrogen before turning to respective RNA kit. RNA from liver was prepared using Total RNA isolation Nucleospin II Kit (Macherey-Nagel #740955.50). RNA from adipose tissue was prepared using RNeasy Lipid Tissue Mini kit (Qiagen #74804). RNA from calf muscle tissue was prepared using RNeasy Fibrous Tissue Mini kit (Qiagen #74704). First strand cDNA synthesis was done using SuperScript III (First-Strand Synthesis SuperMix for qRT-PCR, Invitrogen #11752-250) according to the manufacturer's instructions. Total RNA was prepared from isolated islets using RNeasy Micro Kit (Qiagen #74004) and first strand cDNA synthesis was done using Superscript III (Invitrogen #18080-051) according to the manufacturer's instructions. Quantification of mRNA expression levels was performed essentially as previously described (Reference 3). Tyrosine 3-monooxygenase/tryptophan 5-monoxygenase activation protein, zeta polypeptide (YWHAS) was used to normalise expression levels except for islets where TBP was used.

[2] = tested on: Zucker rats; test: Infrared thermal imaging; type: in vivo; conditions: 10 mg/kg/day, 12 days
Description: Skin temperature of non-sedated Zucker rats that had been treated with test material (10 mg/kg/day) or vehicle for 12 days was recorded with an infrared camera (FLIR ix series Extech IRC30, FLIR systems Inc.) and analysed with a specific software package (FLIR QuickReport version 1.2 SP2 (1.0.1.217). 9 rats per group was used and mean and maximum skin surface temperatures were measured for each animal 2 hours after final dose administration.

[3] = tested on: AMPK; test: SAMS peptide AMPK activity assay; type: biochemical; conditions: 2.5, 5 or 10 μM
Description: 50 ng AMPK (Upstate #14-305) was mixed in various combination with 2.5, 5 or 10 μM test material or 20 μM AMP (Sigma #A2002) in buffer (40 mM Hepes pH7.45, 0.5 mM DTT, 2 mM MgCl2, 0.1% DMSO). In all settings 10 μg SAMS and 0.03 μCi/μl ^32P ATP (Perkin Elmer #NEG502Z500UC) were added. Total reaction volume was 25 μl, all components mixed on ice and the reaction carried out at 37° C., 15 minutes, before terminated with 5 μl phosphoric acid, and placed back on ice. 25 μl reaction were dried in on Whatman P81 filters, 50° C., 2 minutes, washed 3 times in 250 ml 1% phosphoric acid, 2 minutes, before added to 4 ml liquid scintillation cocktail (Perkin Elmer #1200-437) and counted, 1 minute, in a Wallac 1414 beta counter. The radioactivity correlates to enzyme activity.

[4] = tested on: AMPK in human skeletal myotubes; test: AMPK activation assay in human skeletal myotubes; type: cell-based; conditions: cells preferentially expressing β2 subunit
Description: All cell lines were lysed in 0.1 M Tris-HCl, pH 6.8, 2% SDS, 10 mM sodium fluoride (SIGMA #S7920), 10 mM β-glycerophosphate (SIGMA #G6376), and 1 mM sodium vanadate (SIGMA #72060) and supernatant collected after 1 minute at 14,000 rpm. Islets (human and mouse) were lysed in 0.1 M Tris-HCl, pH 6.8, 2% SDS, protease inhibitor (Roche #04 693 124 001) and phosphatase inhibitor (Roche #04 906 837 001). Right calf muscle, heart, iWAT, and interscapular BAT was crushed in a pestle using liquid nitrogen and homogenised in ice cold RIPA buffer (150 mM sodium chloride (SIGMA #S7653), 1.0% NP40 (USB), 0.5% sodium deoxycholate (SIGMA #D6750), 0.1% SDS, 50 mM Tris pH 8.0, 20 mM sodium pyrophosphate (SIGMA #71515), 10 mM sodium fluoride, 10 mM β-glycerolphosphate, 1 mM sodium vanadate and protease inhibitor cocktail (Roche #04693124001), 1 tablet/10 ml lysis buffer). The supernatant was collected after 2 min at 14,000 rpm. This procedure was repeated until all fat was eliminated and the supernatant was clear, at 4° C. Samples were analysed on 4-15% polyacrylamide gels. Values were normalised toward AMPKα, β-Actin, GAPDH or the respective non-phosphorylated counterpart.
Table 3 contains origin of cell lines, growth conditions and settings for activation of AMPK via the test material. […]

[5] = Pharmacokinetics in mice and rats (plasma, liver, brain); type: in vivo; conditions: rodents
Description: Pharmacokinetics of the test material in C57BL/6JBomTac mice and NTac:SD rats were determined via UHPLC-ESI Triple Quad MSMS in plasma from non-fasted animals. The test material (40 mg/kg test material) was administered via oral gavage and 4-, 8-, 12- and 24-hours after administration blood was collected. Test material levels were determined in liver and brain from non-fasted Crl:CD (SD) rats administered the test material (40 mg/kg test material), once daily for 3 weeks, via oral gavage. The test material was extracted in acetonitrile and levels determined using UHPLC-ESI Triple Quad MSMS.

blood-brain barrier crossing [5]: does not cross the blood-brain barrier
oral availability [5]: orally available
plasma half-life [5]: long
Structure (SMILES): O=C(Nc1nc(=O)n(Cc2ccc(Cl)cc2)s1)c1ccc(Cl)cc1 [test material, 4-chloro-N-[2-[(4-chlorophenyl)methyl]-3-oxo-1,2,4-thiadiazol-5-yl]benzamide]
expression of unfolded protein response genes (ER stress) [1]: largely prevented an increased expression of unfolded protein response genes
skin-surface temperature [2]: increased
allosteric activation of AMPK [3]: did not allosterically activate AMPK
pAMPK [4]: increased pAMPK
